Measured values from patent US8134015B2, “Compound inhibiting in vivo phosphorous transport and medicine containing the same” (Kyowa Hakko Kirin Co., Ltd., priority 2003, dated 2012).

Experiments:
rat NaPi-2b = target: T1, rat NaPi-2b (Rattus norvegicus, UniProt Q9JJ09); assay: Sodium-dependent phosphate uptake of Xenopus oocytes which expressed NaPi-2b (32P); format: cell-based; conditions: Xenopus oocytes expressing rat NaPi-2b, 32P radioactive phosphorus; read-out: IC50 (phosphate uptake inhibitory activity)
T1 construct: expressed in transfected cells; host or cells: Xenopus oocytes injected with cRNA
T1 sequence (Q9JJ09 1-695): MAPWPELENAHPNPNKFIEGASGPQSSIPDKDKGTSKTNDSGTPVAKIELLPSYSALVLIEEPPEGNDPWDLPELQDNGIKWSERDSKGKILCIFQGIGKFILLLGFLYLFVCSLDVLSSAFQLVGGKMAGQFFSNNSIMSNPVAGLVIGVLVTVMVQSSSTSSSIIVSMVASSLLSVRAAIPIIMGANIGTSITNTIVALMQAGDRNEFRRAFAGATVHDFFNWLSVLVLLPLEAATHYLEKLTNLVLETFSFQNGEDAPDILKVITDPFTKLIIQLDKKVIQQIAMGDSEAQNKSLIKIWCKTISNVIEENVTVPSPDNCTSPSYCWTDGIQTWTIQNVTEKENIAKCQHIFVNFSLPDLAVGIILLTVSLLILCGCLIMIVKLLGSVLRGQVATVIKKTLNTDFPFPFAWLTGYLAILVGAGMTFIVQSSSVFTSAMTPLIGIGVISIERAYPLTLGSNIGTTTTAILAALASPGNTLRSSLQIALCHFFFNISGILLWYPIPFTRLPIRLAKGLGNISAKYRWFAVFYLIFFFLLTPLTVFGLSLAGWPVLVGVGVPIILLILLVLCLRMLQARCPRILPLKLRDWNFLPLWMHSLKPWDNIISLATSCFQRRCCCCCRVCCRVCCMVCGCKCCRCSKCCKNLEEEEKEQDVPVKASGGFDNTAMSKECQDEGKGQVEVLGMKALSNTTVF
In short: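 Percent inhibition at 300 μM and 100 μM comes from the same inhibition curve of 32P uptake. Assay used oocytes expressing rat NaPi-2b after 2 days of culture.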

human NaPi-2a = target: T2, human NaPi-2a (Homo sapiens, UniProt Q06495); assay: Sodium-dependent phosphate uptake of Xenopus oocytes which expressed NaPi-2a (32P); format: cell-based; conditions: phosphate uptake, Xenopus oocytes expressing human NaPi-2a; five concentration levels
T2 construct: expressed in transfected cells
T2 sequence (Q06495 1-639): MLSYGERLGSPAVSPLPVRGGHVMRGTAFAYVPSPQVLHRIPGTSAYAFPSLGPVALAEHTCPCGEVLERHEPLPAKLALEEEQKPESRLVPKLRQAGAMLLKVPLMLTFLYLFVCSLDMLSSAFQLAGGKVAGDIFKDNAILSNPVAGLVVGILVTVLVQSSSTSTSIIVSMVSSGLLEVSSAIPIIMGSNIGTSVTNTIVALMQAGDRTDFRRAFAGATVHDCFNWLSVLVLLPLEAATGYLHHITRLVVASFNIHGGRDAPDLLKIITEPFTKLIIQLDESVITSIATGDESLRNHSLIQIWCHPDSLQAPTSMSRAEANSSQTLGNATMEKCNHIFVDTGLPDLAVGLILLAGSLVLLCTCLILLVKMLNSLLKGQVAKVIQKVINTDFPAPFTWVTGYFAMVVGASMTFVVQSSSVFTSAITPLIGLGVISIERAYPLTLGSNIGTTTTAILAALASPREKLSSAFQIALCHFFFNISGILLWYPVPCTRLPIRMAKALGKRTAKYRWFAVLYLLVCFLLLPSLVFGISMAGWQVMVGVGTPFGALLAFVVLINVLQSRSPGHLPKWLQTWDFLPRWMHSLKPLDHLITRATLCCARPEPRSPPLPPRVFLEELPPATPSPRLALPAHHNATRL
From the text: Experiment of Sodium-Dependent Phosphate Uptake of Xenopus oocytes which Expressed NaPi-2a
In the test, a group with the addition of choline chloride (Choline Cl) was used as a negative control for nonspecific uptake, and PFA (phosphonoformic acid) was used as a positive control for phosphate transport inhibition.

IC50 (rat NaPi-2b)	IC50 (human NaPi-2a)	Compound
1.41 µM	8.46 µM	Cc1ccc(/C=N/NC(=O)c2c(NC(=O)c3cccc(CN(CC(C)O)CC(C)O)c3)sc3ccccc23)cc1 (stereo not shown) [Compound 793, 3-{[Bis-(2-hydroxy-propyl)-amino]-methyl}-N-[3-(4-methyl-benzylidene-hydrazinocarbonyl)-benzo[b]thiophen-2-yl]-benzamide]
< 3 µM	< 3 µM	Cc1ccc(/C=N/NC(=O)c2c(NC(=O)c3cccc(CN(CC(C)O)CC(C)O)c3)sc(C)c2C)cc1 (stereo not shown) [Compound 845, 3-{[Bis-(2-hydroxy-propyl)-amino]-methyl}-N-[4,5-dimethyl-3-(4-methyl-benzylidene-hydrazinocarbonyl)-thiophen-2-yl]-benzamide]
6.68 µM	23.8 µM	CCN(CC)CCNCc1cccc(C(=O)Nc2sc3c(c2C(=O)N/N=C/c2ccc(C)c(C)c2)CCC3)c1 [Compound 810, 3-[(2-Diethylamino-ethylamino)-methyl]-N-[3-(3,4-dimethyl-benzylidene-hydrazinocarbonyl)-5,6-dihydro-4H-cyclopenta[b]-thiophen-2-yl]-benzamide]
< 1 µM	28.7 µM	COc1ccc(/C=N/NC(=O)c2c(NC(=O)c3cccc(CN(CC(C)O)CC(C)O)c3)sc3c2CCCC3)cc1 (stereo not shown) [Compound 632, 3-{[Bis-(2-hydroxy-propyl)-amino]-methyl}-N-[3-(4-methoxy-benzylidene-hydrazinocarbonyl)-4,5,6,7-tetrahydro-benzo-[b]thiophen-2-yl]-benzamide]
0.04 µM	1.98 µM	O=C(Nc1ccc(N2CCCCC2)cc1C(=O)N/N=C/c1cccc(F)c1)c1cccc(CSCCO)c1 [Compound 883, N-[2-(3-Fluoro-benzylidene-hydrazinocarbonyl)-4-piperidin-1-yl-phenyl]-3-(2-hydroxy-ethylsulfanylmethyl)-benzamide]
3.01 µM	12.9 µM	CC(O)CN(Cc1cccc(C(=O)Nc2sc3c(c2C(=O)N/N=C/c2ccc(F)cc2)CCCC3)c1)CC(C)O (stereo not shown) [Compound 629, 3-{[Bis-(2-hydroxy-propyl)-amino]-methyl}-N-[3-(4-fluoro-benzylidene-hydrazinocarbonyl)-4,5,6,7-tetrahydro-benzo[b]thiophen-2-yl]-benzamide]
1.75 µM	3.13 µM	O=C(Nc1ccc(N2CCCCC2)cc1C(=O)N/N=C/c1ccc(Cl)c(C(F)(F)F)c1)c1cccc(CNCCN(CCO)CCO)c1 [Compound 914, 3-({2-[Bis-(2-hydroxy-ethyl)-amino]-ethylamino}-methyl)-N-[2-(4-chloro-3-trifluoromethyl-benzylidene-hydrazinocarbonyl)-4-piperidin-1-yl-phenyl]-benzamide]
6.46 µM	11 µM	Cc1csc(NC(=O)c2cccc(CN3CCC4(CC3)OCCO4)c2)c1C(=O)N/N=C/c1cccc(F)c1 [Compound 835, 3-(1,4-Dioxa-8-aza-spiro[4,5]dec-8-ylmethyl]-N-[3-(3-fluoro-benzylidene-hydrazinocarbonyl)-4-methyl-thiophen-2-yl]-benzamide]
0.33 µM	1.41 µM	O=C(O)CCSCc1cccc(C(=O)Nc2ccc(N3CCCCC3)cc2C(=O)N/N=C/c2ccc(Cl)c(C(F)(F)F)c2)c1 [Compound 889, 3-{3-[2-(4-Chloro-3-trifluoromethyl-benzylidene-hydrazinocarbonyl)-4-piperidin-1-yl-phenylcarbamoyl]-benzylsulfanyl}-propionic acid]
1.49 µM	4.34 µM	Cc1ccc(/C=N/NC(=O)c2cc(N3CCCCC3)ccc2NC(=O)c2cccc(CN3CCN(CCO)CC3)c2)cc1 [Compound 865, 3-[4-(2-Hydroxy-ethyl)-piperazin-1-ylmethyl]-N-[2-(4-methyl-benzylidene-hydrazinocarbonyl)-4-piperidin-1-yl-phenyl]-benzamide]
< 0.3 µM	7.4 µM	O=C(Nc1ccc(N2CCCCC2)cc1C(=O)N/N=C/c1cccc(F)c1)c1cccc(CN2CCc3nc4ncccc4cc3C2)c1 [Compound 896, 3-(7,8-Dihydro-5H-1,6,9-triaza-anthracen-6-ylmethyl)-N-[2-(3-fluoro-benzylidene-hydrazinocarbonyl)-4-piperidin-1-yl-phenyl]-benzamide]
11.9 µM	9.51 µM	COc1ccc(/C=N/NC(=O)c2c(C)csc2NC(=O)c2cccc(CN(CC(C)O)CC(C)O)c2)cc1 (stereo not shown) [Compound 592, 3-{[Bis-(2-hydroxy-propyl)-amino]-methyl}-N-[3-(4-methoxy-benzylidene-hydrazinocarbonyl)-4-methyl-thiophen-2-yl]-benzamide]
1.92 µM	8.52 µM	CC(O)CN(Cc1cccc(C(=O)Nc2sc3ccccc3c2C(=O)N/N=C/c2cccc(F)c2)c1)CC(C)O (stereo not shown) [Compound 795, 3-{[Bis-(2-hydroxy-propyl)-amino]-methyl}-N-[3-(3-fluoro-benzylidene-hydrazinocarbonyl)-benzo[b]thiophen-2-yl]-benzamide]
4.81 µM	10.7 µM	Cc1csc(NC(=O)c2cccc(CN3CCN(c4ncccn4)CC3)c2)c1C(=O)N/N=C/c1ccc(Cl)c(C(F)(F)F)c1 [Compound 830, N-[3-(4-Chloro-3-trifluoromethyl-benzylidene-hydrazinocarbonyl)-4-methyl-thiophen-2-yl]-3-(4-pyrimidin-2-yl-piperazin-1-ylmethyl)-benzamide]
4.97 µM	6.4 µM	Cc1ccc(/C=N/NC(=O)c2c(C)csc2NC(=O)c2cccc(CN3CCC4(CC3)OCCO4)c2)cc1C [Compound 832, N-[3-(3,4-Dimethyl-benzylidene-hydrazinocarbonyl)-4-methyl-thiophen-2-yl]-3-(1,4-dioxa-8-aza-spiro[4,5]dec-8-ylmethyl)-benzamide]
0.35 µM	1.65 µM	CCN(CC)CCN(C)Cc1cccc(C(=O)Nc2ccc(N3CCCCC3)cc2C(=O)N/N=C/c2ccc(Cl)c(C(F)(F)F)c2)c1 [Compound 862, N-[2-(4-Chloro-3-trifluoromethyl-benzylidene-hydrazinocarbonyl)-4-piperidin-1-yl-phenyl]-3-{[(2-diethylamino-ethyl)-methyl-amino]-methyl}-benzamide]
0.52 µM	< 1 µM	CCN(CC)CCN(C)Cc1cccc(C(=O)Nc2ccc(N3CCCCC3)cc2C(=O)N/N=C/c2cccc(F)c2)c1 [Compound 861, 3-{[(2-Diethylamino-ethyl)-methyl-amino]-methyl}-N-[2-(3-fluoro-benzylidene-hydrazinocarbonyl)-4-piperidin-1-yl-phenyl]-benzamide]
3.91 µM	< 3 µM	Cc1csc(NC(=O)c2cccc(CN3CCN(c4ncccn4)CC3)c2)c1C(=O)N/N=C/c1cccc(F)c1 [Compound 829, N-[3-(3-Fluoro-benzylidene-hydrazinocarbonyl)-4-methyl-thiophen-2-yl]-3-(4-pyrimidin-2-yl-piperazin-1-ylmethyl)-benzamide]
1.33 µM	< 3 µM	Cc1ccc(/C=N/NC(=O)c2c(C)csc2NC(=O)c2cccc(CN(CCO)CCO)c2)cc1C [Compound 786, 3-{[Bis-(2-hydroxy-ethyl)-amino]-methyl}-N-[3-(3,4-dimethyl-benzylidene-hydrazinocarbonyl)-4-methyl-thiophen-2-yl]-benzamide]
< 3 µM	10.2 µM	CCN(CC)CCN(CCN(CC)CC)Cc1cccc(C(=O)Nc2scc(C)c2C(=O)N/N=C/c2ccc(C)c(C)c2)c1 [Compound 838, 3-{[Bis-(2-diethylamino-ethyl)-amino]-methyl}-N-[3-(3,4-dimethyl-benzylidene-hydrazinocarbonyl)-4-methyl-thiophen-2-yl]-benzamide]
